In patent US8530493B2, “Indolopyridines as Eg5 kinesin modulators” (4SC AG, priority 2006, dated 2013):

system: RKO p21 uninduced (proliferating) colon adenocarcinoma cells; test: Alamar Blue cell viability assay, RKO p21 uninduced (proliferating); format: cell-based; details: Homo sapiens, Table B3, anti-proliferative/cytotoxic activity, 72 hours, read-out: −log EC50 RKO p21 uninduced (proliferating) (converted)
Experimental: The anti-proliferative/cytotoxic activity of the compounds described herein can be tested on subclones of RKO human colon adenocarcinoma cells (Schmidt et al., Oncogene 19, 2423-2429; 2000) using the Alamar Blue cell viability assay (described in O'Brien et al. Eur J Biochem 267, 5421-5426, 2000). The compounds are dissolved as 10 mM solutions in DMSO and subsequently diluted in semi-logarithmic steps. DMSO dilutions are further diluted 1:100 into Dulbecco's modified Eagle's medium (DMEM) containing 10% fetal calf serum to a final concentration twice as much as the final concentration in the test. RKO subclones are seeded into 96 well flat bottom plates at a density of 4000 cells per well in a volume of 50 μl per well. 24 hours after seeding the 50 μl each of the compound dilutions in DMEM medium are added into each well of the 96 well plate. Each compound dilution is tested as triplicates. Wells containing untreated control cells are filled with 50 μl DMEM medium containing 1% DMSO. The cells are then incubated with the substances for 72 hours at 37° C. in a humidified atmosphere containing 5% carbon dioxide. To determine the viability of the cells, 10 μl of an Alamar Blue solution (Biosource) are added and the fluorescence is measured at an extinction of 544 nm and an emission of 590 nm. For the calculation of the cell viability the emission value from untreated cells is set as 100% viability and the emission rates of treated cells are set in relation to the values of untreated cells. Viabilities are expressed as % values. The Graphpad Prism program is used for the calculation of EC50 values for anti-proliferative/cytotoxic activity out of the obtained dose-response curves.
To determine the cell cycle specific mode of action, subclones of RKO colon adenocarcinoma cells (RKOp21 or RKOp27 as described by Schmidt et al. in Oncogene 19, 2423-2429; 2000) are seeded into 96 well flat bottom plates at a density of 16000 cells per well in a volume of 50 μl per well in DMEM growth medium with 10% FCS containing 10 μM Ponasterone A. 24 hours after seeding the 50 μl each of the compound dilutions in DMEM medium are added into each well of the 96-well plate. Each compound dilution is tested as triplicates. Wells containing untreated control cells are filled with 50 μl DMEM medium containing 1% DMSO. The cells are then incubated with the substances for 72 hours at 37° C. in a humidified atmosphere containing 5% carbon dioxide. To determine the viability of the cells, 10 μl of an Alamar Blue solution (Biosource) are added and the fluorescence is measured at an extinction of 544 nm and an emission of 590 nm. For the calculation of the cell viability the emission value from untreated cells is set as 100% viability and the emission rates of treated cells are set in relation to the values of untreated cells. Viabilities are expressed as % values. The Graphpad Prism program (GraphPad Software, Inc) is used for the calculation of EC50 values out of the obtained dose-response curves. Viability is compared of proliferating cells grown in the absence of the inducer Ponasterone A, versus viability of cells arrested by the expression of ectopic p27Kip1 induced by Ponasterone A.
Representative values for anti-proliferation/cytotoxicity [measured as −log EC50 (mol/l)] determined in the aforementioned assays follow from the following tables B1, B2 and B3, in which the numbers of the compounds correspond to the numbers of the examples.

Row | SMILES | EC50
1 | COc1cc2c3c([nH]c2cc1F)[C@@H](c1cccc(O)c1)N1C(=O)N(CCCNC(C)(C)C)C(=O)[C@]1(C)C3 (racemic) [Example 308, (3aSR,10RS)-2-(3-tert-Butylamino-propyl)-7-fluoro-10-(3-hydroxy-phenyl)-6-methoxy-3a-methyl-3a,4,9,10-tetrahydro-2,9,10a-triaza-cyclopenta[b]fluorene-1,3-dione] | 39.8 to 251 nM
2 | CCOc1ccc2[nH]c3c(c2c1)C[C@@]1(C)C(=O)N(CCCNCC2CC2)C(=O)N1[C@@H]3c1cccc(O)c1 (racemic) [Example 188, (3aSR,10RS)-2-[3-(Cyclopropylmethyl-amino)-propyl]-6-ethoxy-10-(3-hydroxy-phenyl)-3a-methyl-3a,4,9,10-tetrahydro-2,9,10a-triaza-cyclopenta[b]fluorene-1,3-dione] | 39.8 to 251 nM
3 | CCN(CCCN1C(=O)N2[C@H](c3cccc(O)c3)c3[nH]c4cc(F)c(Cl)cc4c3C[C@@]2(C)C1=O)CCOC (racemic) [Example 471, (3aSR,10RS)-6-Chloro-2-{3-[ethyl-(2-methoxy-ethyl)-amino]-propyl}-7-fluoro-10-(3-hydroxy-phenyl)-3a-methyl-3a,4,9,10-tetrahydro-2,9,10a-triaza-cyclopenta[b]fluorene-1,3-dione] | 39.8 to 251 nM
4 | CCN(CCOC)CCN1C(=O)N2[C@H](c3cccc(O)c3)c3[nH]c4cc(F)c(Cl)cc4c3C[C@@]2(C)C1=O (racemic) [Example 350, (3aSR,10RS)-6-Chloro-2-{2-[ethyl-(2-methoxy-ethyl)-amino]-ethyl}-7-fluoro-10-(3-hydroxy-phenyl)-3a-methyl-3a,4,9,10-tetrahydro-2,9,10a-triaza-cyclopenta[b]fluorene-1,3-dione] | 39.8 to 251 nM
5 | COCCNCCCN1C(=O)N2[C@H](c3cccc(O)c3)c3[nH]c4ccc(OC)cc4c3C[C@@]2(C)C1=O [Example 490, (3aS,10R)-10-(3-Hydroxy-phenyl)-6-methoxy-2-[3-(2-methoxy-ethylamino)-propyl]-3a-methyl-3a,4,9,10-tetrahydro-2,9,10a-triaza-cyclopenta[b]fluorene-1,3-dione] | ≤ 39.8 nM
6 | CCN(C)CCCN1C(=O)N2[C@H](c3cccc(O)c3)c3[nH]c4cc(F)c(OC)cc4c3C[C@@]2(C)C1=O (racemic) [Example 311, (3aSR,10RS)-2-[3-(Ethyl-methyl-amino)-propyl]-7-fluoro-10-(3-hydroxy-phenyl)-6-methoxy-3a-methyl-3a,4,9,10-tetrahydro-2,9,10a-triaza-cyclopenta[b]fluorene-1,3-dione] | 39.8 to 251 nM
7 | CC1CCN(CCN2C(=O)N3[C@H](c4cccc(O)c4)c4[nH]c5cc(F)c(Cl)cc5c4C[C@@]3(C)C2=O)CC1 (racemic) [Example 357, (3aSR,10RS)-6-Chloro-7-fluoro-10-(3-hydroxy-phenyl)-3a-methyl-2-[2-(4-methyl-piperidin-1-yl)-ethyl]-3a,4,9,10-tetrahydro-2,9,10a-triaza-cyclopenta[b]fluorene-1,3-dione] | 39.8 to 251 nM
8 | CCOc1ccc2[nH]c3c(c2c1)C[C@@]1(C)C(=O)N(CCN2CCCCC2)C(=O)N1[C@@H]3c1cccc(O)c1 (racemic) [Example 164, (3aSR,10RS)-6-Ethoxy-10-(3-hydroxy-phenyl)-3a-methyl-2-(2-piperidin-1-yl-ethyl)-3a,4,9,10-tetrahydro-2,9,10a-triaza-cyclopenta[b]fluorene-1,3-dione] | 39.8 to 251 nM
9 | C[C@@]12Cc3c([nH]c4ccc(Br)cc34)[C@@H](c3cccc(O)c3)N1C(=O)N(CCNCC1CC1)C2=O (racemic) [Example 376, (3aSR,10RS)-6-Bromo-2-[2-(cyclopropylmethyl-amino)-ethyl]-10-(3-hydroxy-phenyl)-3a-methyl-3a,4,9,10-tetrahydro-2,9,10a-triaza-cyclopenta[b]fluorene-1,3-dione] | ≤ 39.8 nM
10 | CN1CCN(CCCN2C(=O)N3[C@H](c4cccc(O)c4)c4[nH]c5cc(F)c(Cl)cc5c4C[C@@]3(C)C2=O)CC1 (racemic) [Example 481, (3aSR,10RS)-6-Chloro-7-fluoro-10-(3-hydroxy-phenyl)-3a-methyl-2-[3-(4-methyl-piperazin-1-yl)-propyl]-3a,4,9,10-tetrahydro-2,9,10a-triaza-cyclopenta[b]fluorene-1,3-dione] | 39.8 to 251 nM
11 | C[C@@]12Cc3c([nH]c4ccc(OC(F)F)cc34)[C@@H](c3cccc(O)c3)N1C(=O)N(CCN1CCOCC1)C2=O (racemic) [Example 292, (3aSR,10RS)-6-(1,1-Difluoro-methoxy)-10-(3-hydroxy-phenyl)-3a-methyl-2-(2-morpholin-4-yl-ethyl)-3a,4,9,10-tetrahydro-2,9,10a-triaza-cyclopenta[b]fluorene-1,3-dione] | 39.8 to 251 nM
12 | CCOc1ccc2[nH]c3c(c2c1)C[C@@]1(C)C(=O)N(CCCN2CCCC2)C(=O)N1[C@@H]3c1cccc(O)c1 (racemic) [Example 221, (3aSR,10RS)-6-Ethoxy-10-(3-hydroxy-phenyl)-3a-methyl-2-(3-pyrrolidin-1-yl-propyl)-3a,4,9,10-tetrahydro-2,9,10a-triaza-cyclopenta[b]fluorene-1,3-dione] | 39.8 to 251 nM
13 | COc1cc2c3c([nH]c2cc1F)[C@@H](c1cccc(O)c1)N1C(=O)N(CCNC2CCC2)C(=O)[C@]1(C)C3 (racemic) [Example 426, (3aSR,10RS)-2-(2-Cyclobutylamino-ethyl)-7-fluoro-10-(3-hydroxy-phenyl)-6-methoxy-3a-methyl-3a,4,9,10-tetrahydro-2,9,10a-triaza-cyclopenta[b]fluorene-1,3-dione] | ≤ 39.8 nM
14 | COc1cc2c3c([nH]c2cc1F)[C@@H](c1cccc(O)c1)N1C(=O)N(CCCNC(C)C)C(=O)[C@]1(C)C3 (racemic) [Example 331, (3aSR,10RS)-7-Fluoro-10-(3-hydroxy-phenyl)-2-{3-isopropylamino-propyl)-6-methoxy-3a-methyl-3a,4,9,10-tetrahydro-2,9,10a-triaza-cyclopenta[b]fluorene-1,3-dione] | 39.8 to 251 nM
15 | C[C@@]12Cc3c([nH]c4ccc(OC(F)F)cc34)[C@@H](c3cccc(O)c3)N1C(=O)N(CCNCC1CC1)C2=O (racemic) [Example 270, (3aSR,10RS)-2-[2-(Cyclopropylmethyl-amino)-ethyl]-6-(1,1-difluoro-methoxy)-10-(3-hydroxy-phenyl)-3a-methyl-3a,4,9,10-tetrahydro-2,9,10a-triaza-cyclopenta[b]fluorene-1,3-dione] | ≤ 39.8 nM
16 | CCOc1ccc2[nH]c3c(c2c1)C[C@@]1(C)C(=O)N(CCNC(C)C)C(=O)N1[C@@H]3c1cccc(O)c1 (racemic) [Example 152, (3aSR,10RS)-6-Ethoxy-10-(3-hydroxy-phenyl)-2-(2-isopropylamino-ethyl)-3a-methyl-3a,4,9,10-tetrahydro-2,9,10a-triaza-cyclopenta[b]fluorene-1,3-dione] | ≤ 39.8 nM
17 | CC(C)CNCCCN1C(=O)N2[C@H](c3cccc(O)c3)c3[nH]c4cc(F)c(Cl)cc4c3C[C@@]2(C)C1=O (racemic) [Example 459, (3aSR,10RS)-6-Chloro-7-fluoro-10-(3-hydroxy-phenyl)-2-(3-isobutylamino-propyl)-3a-methyl-3a,4,9,10-tetrahydro-2,9,10a-triaza-cyclopenta[b]fluorene-1,3-dione] | 39.8 to 251 nM
